“Also recorded” adds a separate entry of the source. Like-named read-outs stand apart in the source and are kept apart here.
Assays:
[1] = tested on: HCT116 and HCT116 p53−/− cells; experiment: Cytokine profiling of cell supernatants (Luminex 200), p53 status not separated; type: cell-based, human; settings: for VEGF production/release: both HCT116 and HCT116 p53−/−
Protocol: A total of 4×10^4 HCT116 or HCT116 p53^−/− cells were plated per well of a 24-well plate and incubated twelve-sixteen hours before treatment with 55-fluorouracil, CPT-11, oxaliplatin, cisplatin, or various combination treatments at the appropriate IC50 (combination treatments received each drug at their IC50). Cell supernatants were collected at forty-eight hours after treatment and stored at −20° C. Samples were prepared and run in triplicate on a Luminex 200 Instrument (R&D LX200-XPON-RUO). Sample preparation was conducted, and instrument settings were selected based on the Human Magnetix Luminex Assay (R&D LXSAHM) protocol.

[2] = tested on: HCT116 p53−/− cells; experiment: Cytokine profiling of cell supernatants (Luminex 200), p53−/− cells; type: cell-based, human; settings: IC50, 48 h
Protocol: (§1) Cytokine profiling. A total of 4×10^4 HCT116 or HCT116 p53^−/− cells were plated per well of a 24-well plate and incubated twelve-sixteen hours before treatment with […], CPT-11, oxaliplatin, cisplatin, or various combination treatments at the appropriate IC50 (combination treatments received each drug at their IC50). Cell supernatants were collected at forty-eight hours after treatment and stored at −20° C. Samples were prepared and run in triplicate on a Luminex 200 Instrument (R&D LX200-XPON-RUO). Sample preparation was conducted, and instrument settings were selected based on the Human Magnetix Luminex Assay (R&D LXSAHM) protocol.
(§2) Cytokine profiling. Results were analyzed in GraphPad prism, and statistical significance across drugs was determined separately for wild-type and ^−/− cells with a one-way ANOVA. p-values<0.05 were considered significant.
(§3) HCT116 and HCT116 p53^−/− cells were treated with the four drugs (5-FU, CPT-11, oxaliplatin, and cisplatin) at their IC50s and combination treatment groups received two-three drugs, each at their individual IC50 concentration.

[3] = tested on: HCT116 and HCT116 p53−/− cells; experiment: Clariom D microarrays, RNA expression relative to untreated cells; type: cell-based, human; settings: IC50 dose, 8 h; for BTG2 induction, rank in p53-dependent gene signature: fold change>2
Protocol: Microarrays. Total cellular RNA was isolated, and Clariom™ D microarrays were used to measure changes in RNA expression relative to untreated cells. A total of 7×10^5 HCT116 and HCT116 p53^−/− cells were plated in a 6-well plate and incubated for twelve-sixteen hours before being treated with 5-fluorouracil, CPT-11, oxaliplatin, or cisplatin at their respective IC50 doses for eight hours. Cell pellets were collected and split into two tubes, one for western blot analysis and one for RNA extraction. Samples were randomized, and RNA was isolated (Qiagen 74134) in five batches to ensure a high-quality RNA product. Acceptable RNA concentration and quality were verified with Nanodrop and Bioanalyzer measurements. Clariom D Microarrays (ThermoFisher 902923) were conducted according to the manufacturer's protocol in two batches on randomized samples to limit batch effects.
Statistical analysis. TAC software was used to calculate fold changes and statistical significance. Microarrays Applied Biosystems Transcriptomic Analysis Console (TAC) software was used to calculate fold-changes in gene expression relative to the untreated control cells. p-values<0.05 were considered significant.
To define a pan-drug signature and to evaluate heterogeneity in the p53 response on a whole-transcriptome scale, the inventors treated HCT116 and HCT116 p53^−/− cells with each of the four drugs at their IC50 for eight hours. The RNA expression relative to an untreated control was measured using microarray analysis. Upregulation of p53 in these samples and equal induction of cell death at this dose and time point was validated by Western blot and CellTiterGlo, respectively, before microarray analysis. […] Each internal control had tightly clustered triplicates. Quality control measurements were also determined to be satisfactory for further analysis.

[4] = tested on: HCT116 cells (wild-type); experiment: Cytokine profiling of cell supernatants (Luminex 200), wild-type cells; type: cell-based, human; settings: IC50, 48 h
Protocol: as §1, §2, §3

[5] = cited from earlier work
[6] = oxaliplatin-treated mice; cited from earlier work
[7] = drug at IC50, 48 h, HCT116 vs HCT116 p53−/−
[8] = drug(s) each at IC50, 48 h, vs control

N.N.[Cl][Pt][Cl] [cisplatin]
p53 dependence of TRAILR2 regulation [1, 7]: despite p53 status
VEGF production/release ([1]; drug at IC50, 48 h): downregulated
TRAILR2 level in cell supernatant ([1]; drug at IC50, 48 h, vs control): increased
ferritin level in cell supernatant [1, 8]: increase
ferritin level in cell supernatant [2]: large increase
PITPNC1 transcript regulation [3]: downregulation
PRPF39 transcript regulation [3]: upregulation
ROR1 transcript regulation [3]: downregulation
transcripts of the 5-fluorouracil/CPT-11/oxaliplatin-specific signature (e.g., SERPINE1, CEACAM1, C1orf116) [3]: unaffected
BTG2 induction, rank in p53-dependent gene signature [3]: top upregulated gene; also recorded: most highly induced gene

O=C1[O][Pt]2([NH][C@@H]3CCCC[C@H]3[NH]2)[O]C1=O [oxaliplatin, Oxaliplatin]
IL-8 level in cell supernatant [1]: increase
TRAILR2 level in cell supernatant [1]: down-regulated
p53 dependence of TRAILR2 regulation [1]: dependent on p53
VEGF production/release ([1]; drug at IC50, 48 h): downregulated
IL-8 level in cell supernatant [4]: did not affect
IL-8 level in cell supernatant [2]: induced
ATF3 transcript regulation [3]: Upregulation
FOS transcript regulation [3]: uniquely upregulated
SAT1 transcript regulation [3]: uniquely upregulated
SUSD2 transcript regulation [3]: uniquely upregulated
transcripts of the 5-fluorouracil/CPT-11/oxaliplatin-specific signature (e.g., SERPINE1, CEACAM1, C1orf116) [3]: upregulated
BTG2 induction, rank in p53-dependent gene signature [3]: top upregulated gene; also recorded: most highly induced gene
peripheral neuropathy, share of patients [5]: 30-50%
neuronal damage (upregulation of FOS and ATF3) [6]: neuronal damage

O=c1[nH]cc(F)c(=O)[nH]1 [5-fluorouracil, 5-Fluorouracil]
p53 dependence of TRAILR2 regulation [1, 7]: p53-independent
VEGF production/release ([1]; drug at IC50, 48 h): downregulated
TRAILR2 level in cell supernatant ([1]; drug at IC50, 48 h, vs control): down-regulated
BAX transcript regulation [3]: slight preferential upregulation; also recorded: preferentially upregulated
histone gene regulation [3]: strikingly unique down-regulation; also recorded: uniquely down-regulated
transcripts of the 5-fluorouracil/CPT-11/oxaliplatin-specific signature (e.g., SERPINE1, CEACAM1, C1orf116) [3]: upregulated
BTG2 induction, rank in p53-dependent gene signature [3]: top upregulated gene; also recorded: most highly induced gene

CN(C)C(=N)N=C(N)N [metformin]
reversal of oxaliplatin-induced neuronal damage [6]: reversible

CCc1c2c(nc3ccc(OC(=O)N4CCC(N5CCCCC5)CC4)cc13)-c1cc3c(c(=O)n1C2)COC(=O)[C@]3(O)CC [CPT-11, Irinotecan]
VEGF production/release ([1]; drug at IC50, 48 h): downregulated
TRAILR2 level in cell supernatant ([1]; drug at IC50, 48 h, vs control): not affected
IL-8 level in cell supernatant [1, 8]: moderate increase
DRAM1 transcript regulation [3]: p53-dependent, CPT-11-specific regulation
FDXR transcript regulation [3]: p53-dependent, CPT-11-specific regulation
TLR3 transcript regulation [3]: p53-dependent, CPT-11-specific regulation
transcripts of the 5-fluorouracil/CPT-11/oxaliplatin-specific signature (e.g., SERPINE1, CEACAM1, C1orf116) [3]: upregulated
BTG2 induction, rank in p53-dependent gene signature [3]: second most highly induced gene
